Assay results as given in patent US8513285B2, “3 or 4-substituted piperidine compounds” (SK Biopharmaceuticals Co., Ltd., priority 2008, dated 2013).

Tests used:
mice [1] = experiment: Acetic acid induced writhing test (AA writhing test); assay type: in vivo; conditions: 0.8% acetic acid i.p. 30 min later, vs control group
Text: Specially the results of Marble burying test (MB) in mice as noted in Table 3 show the compounds of the invention are related to the treatment of anxiety. Acetic Acid Induced Writhing Test (AA Writhing Test)
The Acetic acid-induced writhing test is a well-established nociceptive test using a chemical stimulus. Although several animal models of nociceptive tests have been developed to examine and compare the anti-nociceptive effects of different drugs, the anti-nociceptive effects of antidepressants appear to be test-dependent. Indeed, the acetic acid-induced writhing test is more sensitive to antidepressants than other tests using thermal, mechanical or electrical stimuli.
The animals were subcutaneously treated with the test compound with an injection volume of 10 ml/kg. The group treated with 30% PEG400 or saline served as a control group. Thirty minutes later, the mice were intraperitoneally treated with 0.8% (v/v) acetic acid. Each mouse was then placed in a cage for individual observation. The writhing numbers for 10 minutes were counted. The writhe is operationally defined as a contraction of the abdomen followed by stretching of the hind limbs. The potent ability of the compounds was determined as percent value of reduction in the number of writhing comparing to the control group.

mice [2] = experiment: Marble burying test; assay type: in vivo; conditions: 30 min after treatment, vs control group
Text: The Marble burying test is a screening tool for putative anxiolytics. In this test, control mice naturally bury glass marbles in the cage bedding and the administration of anxiolytic compounds, including Diazepam, reduces the number of buried marbles. Positive compounds in the marble burying test including selective serotonin reuptake inhibitor may be especially beneficial to obsessive-compulsive disorder.
A group of mice was intraperitoneally treated with test compound dissolved in 30% PEG400 with an injection volume of 10 ml/kg. The group treated with only 30% PEG400 served as a control group. Thirty minutes after the treatment, the animals were individually placed in a polycarbonate cage which was same as used for animal housing with an open top located within a quiet room. Each cage consisted of ⅛ inch corn bedding 5 cm deep. Twenty four clean glass marbles (15 mm diameter) were evenly spaced in four rows of six on top of the bedding. Each mouse was left in the cage for 30 minutes and the number of marbles buried (buried more than ½ or ⅔) was counted. The potent ability of the compounds was determined as percent value of reduction in the number of marbles buried comparing to the control group.

[3] = biological target: T1, human recombinant norepinephrine transporter (Homo sapiens, UniProt P23975); experiment: Norepinephrine transporter reuptake inhibition assay; assay type: cell-based; conditions: 100 nM; MDCK cells with human norepinephrine transporter; [3H]Norepinephrine uptake; read-out: Inhibition % at 100 nM NE reuptake
T1 construct: expressed in transfected cells; host or cells: MDCK
Protocol: Norepinephrine Transporter Reuptake Inhibition Assay
Norepinephrine transporter reuptake inhibition assay used the method described by Galli A. et al., J Exp Biol., 1995, 198, p 2197˜2212.
MDCK cells with stably expressed human recombinant norepinephrine transporter were plated one day. Test compounds were pre-incubated with cells (2×10^5/ml) in modified Tris-HEPES buffer pH 7.1 for 20 minutes at 25° C. and then they were incubated for additional 10 minutes after 25 nM of [^3H]Norepinephrine was added. A lysate was obtained from solubilized cells and the filtered lysate was counted to determine [^3H]Norepinephrine uptake. Reduction of [^3H]Norepinephrine uptake by 50 percent or more (≧50%) relative to 10 μM desipramine indicates significant inhibitory activity. Compounds were screened at 10, 1, 0.1, 0.01 and 0.001 μM to determine their IC50s.

[4] = biological target: T2, human serotonin transporter (Homo sapiens, UniProt P31645); experiment: Serotonin transporter reuptake inhibition assay; assay type: cell-based; conditions: HEK293; 100 nM; HEK-293 cells with human serotonin transporter; [3H]Serotonin uptake; read-out: Inhibition % at 100 nM 5-HT reuptake
T2 construct: expressed in transfected cells; host or cells: HEK-293
Protocol: Serotonin Transporter Reuptake Inhibition Assay
The method to test the ability of compounds to inhibit transporters from reuptake of serotonin followed Gu H. et al., J Biol. Chem., 1994, 269, p […].
The recombinant HEK-293 cells with human serotonin transporter were plated. Test compounds were pre-incubated with cells (2×10^5/ml) in modified Tris-HEPES buffer pH 7.1 for 20 minutes at 25° C. and then they were incubated for additional 10 minutes after 65 nM of [^3H]Serotonin was added. Bound cells were filtered and counted to determine [^3H]Serotonin uptake. Reduction of [^3H]Serotonin uptake by 50 percent or more (≧50%) relative to 10 μM fluoxetine indicates significant inhibitory activity. Compounds were screened at 10, 1, 0.1, 0.01 and 0.001 μM for IC50s.

mice [5] = experiment: Forced swimming test in mice (FST); assay type: in vivo; conditions: Mus musculus, 0.5 h, 30ip, 30 min after administration, vs control group, read-out: Reduction % at 30ip (duration of immobility)
Protocol: Forced Swimming Test in Mice (FST)
The Forced swimming test is an animal model based on the rodent's behavioral repertoire for screening drugs with potential antidepressant activity. As in several other models used for this goal, an uncontrollable stress stimulus produces behavioral changes that are sensitive to antidepressant treatment.
The mice were intraperitoneally treated with the test compound with an injection volume of […]. The group treated with 30% PEG400 served as a control group. Thirty minutes following administration, mice were individually forced to swim in a transparent glass vessel (14 cm high, 11.5 cm in diameter) filled with 10 cm of water at 25° C. The total duration of immobility (second) was measured during the last 4 minutes of a single 6-min test session. Mice were considered immobile when they made no further attempts to escape other than the movements necessary to keep their heads above the water. The potent ability of the compounds was determined as percent value of reduction in the duration of immobility comparing to the control group.

[6] = biological target: T3, human recombinant dopamine transporter (Homo sapiens, UniProt Q01959); experiment: Dopamine transporter reuptake inhibition assay; assay type: cell-based; conditions: 100 nM; CHO-K1 cells with human dopamine transporter; [3H]Dopamine uptake; read-out: Inhibition % at 100 nM DA reuptake
T3 construct: expressed in transfected cells; host or cells: CHO-K1
Protocol: Dopamine Transporter Reuptake Inhibition Assay
The assay followed the method modified from Pristupa Z. B. et al., Mol. Pharmacol., 1994, p 125˜135.
CHO-K1 cells with human recombinant dopamine transporter were plated. Test compounds were pre-incubated with cells (4×10^5/ml) in modified Tris-HEPES buffer pH 7.1 for 20 minutes at 25° C. and then they were incubated for additional 10 minutes after 50 nM of [^3H]Dopamine was added. A lysate is obtained from solubilized cells and counted to determine [^3H]Dopamine uptake. Reduction of [^3H]Dopamine uptake by 50 percent or more (≧50%) relative to 10 μM nomifensine indicates significant inhibitory activity. Compounds were tested at 10, 1, 0.1, 0.01 and 0.001 μM for IC50s.

T3 sequence (Q01959 whole entry): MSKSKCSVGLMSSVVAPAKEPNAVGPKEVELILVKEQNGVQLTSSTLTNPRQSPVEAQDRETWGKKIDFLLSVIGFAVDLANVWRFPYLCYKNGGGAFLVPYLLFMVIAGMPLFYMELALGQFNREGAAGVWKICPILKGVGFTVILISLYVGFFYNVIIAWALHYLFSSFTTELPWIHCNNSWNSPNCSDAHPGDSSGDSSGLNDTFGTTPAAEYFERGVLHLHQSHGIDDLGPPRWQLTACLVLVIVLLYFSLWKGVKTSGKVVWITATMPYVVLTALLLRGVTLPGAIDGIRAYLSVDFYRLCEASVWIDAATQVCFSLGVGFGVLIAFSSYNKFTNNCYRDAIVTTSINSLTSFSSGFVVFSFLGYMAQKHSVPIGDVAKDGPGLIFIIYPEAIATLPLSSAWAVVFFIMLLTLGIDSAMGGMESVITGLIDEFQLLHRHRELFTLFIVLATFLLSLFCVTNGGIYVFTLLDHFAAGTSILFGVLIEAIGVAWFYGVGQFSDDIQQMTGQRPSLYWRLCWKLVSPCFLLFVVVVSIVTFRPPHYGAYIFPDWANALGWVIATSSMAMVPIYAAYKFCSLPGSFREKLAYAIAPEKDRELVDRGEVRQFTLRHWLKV
T2 sequence (P31645 whole entry): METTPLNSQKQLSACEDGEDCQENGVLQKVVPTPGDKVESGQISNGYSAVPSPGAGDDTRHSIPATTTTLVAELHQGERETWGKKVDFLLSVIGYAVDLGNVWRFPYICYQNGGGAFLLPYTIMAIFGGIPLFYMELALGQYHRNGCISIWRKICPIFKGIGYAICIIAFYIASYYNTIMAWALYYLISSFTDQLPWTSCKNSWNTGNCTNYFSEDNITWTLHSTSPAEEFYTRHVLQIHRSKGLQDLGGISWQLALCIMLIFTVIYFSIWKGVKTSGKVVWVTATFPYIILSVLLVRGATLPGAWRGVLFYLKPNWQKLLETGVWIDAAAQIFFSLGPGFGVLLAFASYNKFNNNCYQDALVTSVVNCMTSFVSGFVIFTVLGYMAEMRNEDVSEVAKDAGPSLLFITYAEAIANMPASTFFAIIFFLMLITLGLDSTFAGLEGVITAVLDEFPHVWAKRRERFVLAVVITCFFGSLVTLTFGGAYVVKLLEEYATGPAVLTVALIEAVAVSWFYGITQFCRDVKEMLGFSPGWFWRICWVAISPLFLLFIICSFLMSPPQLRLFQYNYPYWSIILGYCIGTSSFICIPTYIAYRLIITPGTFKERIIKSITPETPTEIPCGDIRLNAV
T1 sequence (P23975 whole entry): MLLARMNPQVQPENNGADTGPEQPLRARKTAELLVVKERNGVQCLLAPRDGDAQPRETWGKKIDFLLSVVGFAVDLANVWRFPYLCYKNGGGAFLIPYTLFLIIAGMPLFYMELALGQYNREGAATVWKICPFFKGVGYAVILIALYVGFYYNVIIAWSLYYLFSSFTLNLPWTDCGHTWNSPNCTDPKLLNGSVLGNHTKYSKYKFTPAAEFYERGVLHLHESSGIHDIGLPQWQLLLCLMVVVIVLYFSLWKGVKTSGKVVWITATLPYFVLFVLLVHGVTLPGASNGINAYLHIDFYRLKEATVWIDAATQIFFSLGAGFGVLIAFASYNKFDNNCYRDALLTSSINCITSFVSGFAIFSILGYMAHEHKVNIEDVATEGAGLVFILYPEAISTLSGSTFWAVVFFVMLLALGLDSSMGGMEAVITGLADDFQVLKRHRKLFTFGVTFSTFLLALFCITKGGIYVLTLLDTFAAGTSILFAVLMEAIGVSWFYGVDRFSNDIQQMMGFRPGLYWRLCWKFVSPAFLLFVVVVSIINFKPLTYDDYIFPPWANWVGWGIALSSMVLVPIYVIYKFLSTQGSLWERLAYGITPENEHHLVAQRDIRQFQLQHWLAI

Row | Structure (SMILES) | inhibition at 0.1 µM [3] [%] | inhibition at 0.1 µM [4] [%] | inhibition at 0.1 µM [6] [%] | Reduction % at 30sc (number of writhing) (mice [1]) [%] | Reduction % (number of marbles buried) at 10ip (mice [2]; 10ip) | inhibition in vivo at 30 mg/kg (mice [5]) [%] | Reduction % (number of writhing) at 10sc (mice [1]) | Reduction % (number of marbles buried) at 20ip (mice [2]; 20ip)
1 | c1ccc2cc([C@@H]([C@@H]3CCCNC3)n3ncnn3)ccc2c1 [Example 1, (3R)-3-[(R)-naphthalen-2-yl(2H-tetrazol-2-yl)methyl]piperidine] | 94 | 81 | 88 | 70.8 | 57.5% (at 10ip) | 56.3 |  | 
2 | c1ccc2cc([C@H]([C@H]3CCCNC3)n3ncnn3)ccc2c1 [Example 2, (3S)-3-[(S)-naphthalen-2-yl(2H-tetrazol-2-yl)methyl]piperidine] | 85 | 98 | 85 |  |  | 37.5 | 60.6% (at 10sc) | 67.5% (at 20ip)
3 | Cc1nnn([C@H](c2ccc3ccccc3c2)[C@H]2CCCNC2)n1 [Example 10, (3S)-3-[(S)-(5-methyl-2H-tetrazol-2-yl)(naphthalen-2-yl)methyl]piperidine] | 87 | 93 | 93 |  |  |  |  | 
4 | c1ccc2cc([C@@H]([C@@H]3CCCNC3)n3nccn3)ccc2c1 [Example 13, (3R)-3-[(R)-naphthalen-2-yl(2H-1,2,3-triazol-2-yl)methyl]piperidine] | 87 | 84 | 63 | 71.8 |  | 9.4 |  | 
5 | c1ccc2cc([C@H]([C@H]3CCCNC3)n3nccn3)ccc2c1 [Example 14, (3S)-3-[(S)-naphthalen-2-yl(2H-1,2,3-triazol-2-yl)methyl]piperidine] | 70 | 76 | 52 |  |  | 6.4 |  | 
6 | Clc1ccc2cc([C@@H]([C@@H]3CCCNC3)n3ncnn3)ccc2c1 [Example 67, (3R)-3-[(R)-(6-chloronaphthalen-2-yl)(2H-tetrazol-2-yl)methyl]piperidine] | 90 | 97 | 81 |  |  | 2.4 |  | 
7 | c1ccc(-c2nnn([C@H](c3ccc4ccccc4c3)[C@H]3CCCNC3)n2)cc1 [Example 75, (3S)-3-[(S)-naphthalen-2-yl-(5-phenyl-tetrazol-2-yl)methyl]piperidine] | -1 | 86 | 41 |  |  |  |  | 
8 | c1ccc2cc([C@H]([C@H]3CCCNC3)n3nc4ccccc4n3)ccc2c1 [Example 80, 2-{(S)-naphthalen-2-yl[(3S)-piperidin-3-yl]methyl}-2H-benzotriazole] | 55 | 59 | 84 |  |  |  |  | 
9 | c1ccc2cc([C@H]([C@H]3CCCNC3)n3cncn3)ccc2c1 [Example 90, (3S)-3-[(S)-naphthalen-2-yl(1H-1,2,4-triazol-1-yl)methyl]piperidine] | 39 | 87 | 44 |  |  |  |  | 

Further lines, with some results ahead:

Row | inhibition at 0.1 µM [3] [%] | inhibition at 0.1 µM [4] [%] | inhibition at 0.1 µM [6] [%] | Structure (SMILES) | Reduction % at 30sc (number of writhing) (mice [1]) [%] | Reduction % (number of marbles buried) at 10ip (mice [2]; 10ip) | inhibition in vivo at 30 mg/kg (mice [5]) [%] | Reduction % (number of writhing) at 10sc (mice [1]) | Reduction % (number of marbles buried) at 20ip (mice [2]; 20ip)
10 | 72 | 76 | 78 | COc1ccc2cc([C@H]([C@H]3CCCNC3)n3ncnn3)ccc2c1 [Example 35, (3S)-3-[(S)-(6-methoxynaphthalen-2-yl)(2H-tetrazol-2-yl)methyl]piperidine] |  |  | 32.7 |  | 
11 | 57 | 96 | 63 | Clc1ccc2cc([C@H]([C@H]3CCCNC3)n3ncnn3)ccc2c1 [Example 68, (3S)-3-[(S)-(6-chloronaphthalen-2-yl)(2H-tetrazol-2-yl)methyl]piperidine] |  |  | 7.1 | 48.1% (at 10sc) | 
12 | 14 | 95 | 3 | Clc1ccc2cc([C@@H]([C@H]3CCCNC3)n3ncnn3)ccc2c1 [Example 70, (3S)-3-[(R)-(6-chloronaphthalen-2-yl)(2H-tetrazol-2-yl)methyl]piperidine] |  |  |  |  | 
13 | 6 | 86 | 2 | Fc1ccc2cc([C@@H]([C@H]3CCCNC3)n3ncnn3)ccc2c1 [Example 72, (3S)-3-[(R)-(6-fluoronaphthalen-2-yl)(2H-tetrazol-2-yl)methyl]piperidine] |  |  | 46.7 |  | 
14 | 5 | 44 | -4 | Fc1ccc2cc([C@H]([C@@H]3CCCNC3)n3ncnn3)ccc2c1 [Example 84, (3R)-3-[(S)-(6-fluoronaphthalen-2-yl)(2H-tetrazol-2-yl)methyl]piperidine] |  |  |  |  | 
15 | 74 | 94 | 81 | Cc1ccc2cc([C@H]([C@H]3CCCNC3)n3ncnn3)ccc2c1 [Example 85, (3S)-3-[(S)-(6-methylnaphthalen-2-yl)(2H-tetrazol-2-yl)methyl]piperidine] |  |  | 11.3 | 46.4% (at 10sc) | 
16 | -1 | 93 | 35 | Cc1ccc2cc([C@@H]([C@H]3CCCNC3)n3ncnn3)ccc2c1 [Example 86, (3S)-3-[(R)-(6-methylnaphthalen-2-yl)(2H-tetrazol-2-yl)methyl]piperidine] |  |  | 13.4 |  | 
